Tests used:
HDAC2 = HDAC2 (Homo sapiens, UniProt Q92769); experiment: HDAC enzyme assay; details: for inhibition of HDAC2: at 1 µM, initial results (data not shown)
HDAC4 = HDAC4 (Homo sapiens, UniProt P56524); experiment: HDAC enzyme assay; details: at 1 µM, initial results (data not shown)
[1] = system: human dermal fibroblast (hDF) cells; experiment: Cell cytotoxicity MTS-PMS assay, hDF; type: cell-based; details: 72 h, read-out: hDF GI50

Sequence of HDAC2 (Q92769 whole entry): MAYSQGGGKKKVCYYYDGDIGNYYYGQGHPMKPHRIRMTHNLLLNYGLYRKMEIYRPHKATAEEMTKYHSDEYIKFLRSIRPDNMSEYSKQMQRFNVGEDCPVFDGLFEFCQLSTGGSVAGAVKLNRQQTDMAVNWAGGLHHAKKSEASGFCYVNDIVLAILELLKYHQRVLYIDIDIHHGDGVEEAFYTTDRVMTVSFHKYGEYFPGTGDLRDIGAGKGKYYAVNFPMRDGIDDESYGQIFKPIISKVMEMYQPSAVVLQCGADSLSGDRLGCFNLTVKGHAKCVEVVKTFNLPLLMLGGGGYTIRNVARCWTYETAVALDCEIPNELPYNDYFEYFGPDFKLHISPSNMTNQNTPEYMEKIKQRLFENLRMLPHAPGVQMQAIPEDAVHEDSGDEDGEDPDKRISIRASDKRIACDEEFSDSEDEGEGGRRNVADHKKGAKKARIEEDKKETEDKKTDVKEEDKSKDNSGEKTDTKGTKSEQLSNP
Sequence of HDAC4 (P56524 whole entry): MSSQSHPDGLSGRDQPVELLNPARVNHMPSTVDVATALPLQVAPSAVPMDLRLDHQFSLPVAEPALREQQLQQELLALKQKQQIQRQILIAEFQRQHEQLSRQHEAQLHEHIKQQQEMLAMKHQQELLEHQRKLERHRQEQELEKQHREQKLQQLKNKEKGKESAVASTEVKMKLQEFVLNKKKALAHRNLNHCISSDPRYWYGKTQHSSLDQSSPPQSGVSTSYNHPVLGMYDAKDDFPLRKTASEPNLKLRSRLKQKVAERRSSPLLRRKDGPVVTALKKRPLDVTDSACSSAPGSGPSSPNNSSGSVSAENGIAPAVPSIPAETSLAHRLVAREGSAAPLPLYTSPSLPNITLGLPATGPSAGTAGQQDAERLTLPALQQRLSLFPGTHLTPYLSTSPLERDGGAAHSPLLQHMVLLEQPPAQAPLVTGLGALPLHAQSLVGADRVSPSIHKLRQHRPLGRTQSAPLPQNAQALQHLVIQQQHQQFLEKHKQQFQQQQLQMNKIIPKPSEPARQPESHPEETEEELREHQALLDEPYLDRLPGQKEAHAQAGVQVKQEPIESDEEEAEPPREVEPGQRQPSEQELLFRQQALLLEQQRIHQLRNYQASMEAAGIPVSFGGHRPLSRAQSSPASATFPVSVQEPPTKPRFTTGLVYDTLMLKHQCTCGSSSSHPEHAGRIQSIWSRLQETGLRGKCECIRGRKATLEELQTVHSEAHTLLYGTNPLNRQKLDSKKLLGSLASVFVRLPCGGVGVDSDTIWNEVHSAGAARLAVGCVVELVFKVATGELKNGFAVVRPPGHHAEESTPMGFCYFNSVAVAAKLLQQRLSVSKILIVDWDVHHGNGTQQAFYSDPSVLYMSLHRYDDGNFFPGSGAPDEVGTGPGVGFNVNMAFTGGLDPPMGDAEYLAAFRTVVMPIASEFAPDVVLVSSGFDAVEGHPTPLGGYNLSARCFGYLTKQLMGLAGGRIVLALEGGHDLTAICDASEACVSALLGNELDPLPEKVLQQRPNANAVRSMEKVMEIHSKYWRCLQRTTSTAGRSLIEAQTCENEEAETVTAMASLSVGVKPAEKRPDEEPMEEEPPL

Compound	selectivity for Class I HDACs (HDAC2; HDAC2 versus Class II HDACs)	inhibition of HDAC2 (HDAC2)	inhibition of HDAC4 (HDAC4)	GI50 [1] [µM]
CCOC(=O)NCCCC(=O)NCCc1ccccc1 [compound 1, Ethyl 3-(phenethylcarbamoyl)propylcarbamate]	over 3,500 fold	selectively inhibited HDAC2	relatively little inhibition of HDAC4	> 100
O=C(CCCC(=O)NCCc1ccccc1)NO [compound 3, N^1-Hydroxy-N^5-phenethylglutaramide]	–	selectively inhibited HDAC2	relatively little inhibition of HDAC4	> 100
O=C(CCCCCCC(=O)Nc1ccccc1)NO [compound 2, suberoylanilide hydroxamic acid, reference compound]	–	–	completely inhibited	–
